Experimental data as given in patent US11365195B2, “Atypical inhibitors of monoamine transporters; method of making; and use thereof” (THE UNITED STATES OF AMERICA, AS REPRESENTED BY THE …, priority 2017, dated 2022).
Where two headings read alike, the source gives them in different places.

Tests used:
SERT = target: T1, SERT (Rattus norvegicus, UniProt P31652); assay: SERT radioligand binding in rat midbrain ([3H]-Citalopram competition); details: rat midbrain/brain stem membranes, [3H]-Citalopram, mean ± SEM; read-out: SERT (rat mid-brain-stem) Ki ± SEM
T1 construct: 100 μl of tissue preparation (2 mg of brain stem membranes per well); tissue Bioreclamation IVT (Hicksville, N.Y.); host or cells: male Sprague-Dawley rat brain stem membranes
T1 sequence (P31652 whole entry): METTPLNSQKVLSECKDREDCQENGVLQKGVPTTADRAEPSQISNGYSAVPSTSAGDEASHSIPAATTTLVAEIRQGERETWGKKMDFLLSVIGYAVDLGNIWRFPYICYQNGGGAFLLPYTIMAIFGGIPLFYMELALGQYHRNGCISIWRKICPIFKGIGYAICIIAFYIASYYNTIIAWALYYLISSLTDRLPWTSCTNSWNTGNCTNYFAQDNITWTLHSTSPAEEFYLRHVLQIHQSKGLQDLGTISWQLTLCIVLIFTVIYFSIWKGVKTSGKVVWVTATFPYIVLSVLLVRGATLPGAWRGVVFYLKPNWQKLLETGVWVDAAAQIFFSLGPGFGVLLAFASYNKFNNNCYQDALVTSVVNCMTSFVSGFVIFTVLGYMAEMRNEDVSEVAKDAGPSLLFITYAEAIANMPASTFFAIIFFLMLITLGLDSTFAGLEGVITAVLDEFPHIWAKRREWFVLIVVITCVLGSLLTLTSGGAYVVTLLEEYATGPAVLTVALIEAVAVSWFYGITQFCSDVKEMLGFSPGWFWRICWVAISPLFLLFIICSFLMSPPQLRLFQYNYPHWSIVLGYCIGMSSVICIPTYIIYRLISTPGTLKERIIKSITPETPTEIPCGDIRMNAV
Experimental: (§1) Binding affinities of the analogue compounds were evaluated at the DAT and SERT in rat brain membranes, and sigma-1 in guinea pig brain membranes according to the following protocols.
SERT Radioligand Binding in Rat Midbrain
(§2) The tissue was centrifuged at 20,000 rpm for 10 min at 4° C. The pellet was suspended in cold buffer and centrifuged again using the same settings. The resulting pellet was resuspended in cold buffer at a concentration of 20 mg/mL OWW (original wet weight). On test day, all test compounds were freshly dissolved in 30% DMSO and 70% H2O to a stock concentration of 1 mM or 100 μM. When necessary, to assist the solubilization of compounds, 10 μl of glacial acetic acid was added along with the DMSO (in place of 10 μl final H2O volume). Each test compound was then diluted into 10 half-log serial dilutions using 30% DMSO vehicle. […] Non-specific binding was determined using 10 μL Fluoxetine HCl and total binding was determined with 30% DMSO vehicle. The reaction was started with the addition of the tissue. All compound dilutions were tested in triplicate and the reaction incubated for 60 min at room temperature. The reaction was terminated by filtration through Perkin Elmer Uni-Filter-96 GF/B, presoaked for 60 min in 0.3% polyethylenimine, using a Brandel 96-Well Plates Harvester Manifold (Brandel Instruments, Gaithersburg, Md.). The filters were washed 3 times with 3 mL (3×1 mL/well) of ice cold binding buffer. […] These analyses were performed using GraphPad Prism version 6.00 for Macintosh (GraphPad Software, San Diego, Calif.).

DAT = target: T2, DAT (Rattus norvegicus, UniProt P23977); assay: DAT radioligand binding in rat striatum ([3H]-WIN35,428 competition); details: for SERT/DAT: ratio of SERT Ki to DAT Ki
T2 construct: 100 μl of tissue preparation (1.5 mg of brain striatum membranes per well); tissue Bioreclamation IVT (Hicksville, N.Y.); host or cells: male Sprague-Dawley rat brain striatum membranes
T2 sequence (P23977 whole entry): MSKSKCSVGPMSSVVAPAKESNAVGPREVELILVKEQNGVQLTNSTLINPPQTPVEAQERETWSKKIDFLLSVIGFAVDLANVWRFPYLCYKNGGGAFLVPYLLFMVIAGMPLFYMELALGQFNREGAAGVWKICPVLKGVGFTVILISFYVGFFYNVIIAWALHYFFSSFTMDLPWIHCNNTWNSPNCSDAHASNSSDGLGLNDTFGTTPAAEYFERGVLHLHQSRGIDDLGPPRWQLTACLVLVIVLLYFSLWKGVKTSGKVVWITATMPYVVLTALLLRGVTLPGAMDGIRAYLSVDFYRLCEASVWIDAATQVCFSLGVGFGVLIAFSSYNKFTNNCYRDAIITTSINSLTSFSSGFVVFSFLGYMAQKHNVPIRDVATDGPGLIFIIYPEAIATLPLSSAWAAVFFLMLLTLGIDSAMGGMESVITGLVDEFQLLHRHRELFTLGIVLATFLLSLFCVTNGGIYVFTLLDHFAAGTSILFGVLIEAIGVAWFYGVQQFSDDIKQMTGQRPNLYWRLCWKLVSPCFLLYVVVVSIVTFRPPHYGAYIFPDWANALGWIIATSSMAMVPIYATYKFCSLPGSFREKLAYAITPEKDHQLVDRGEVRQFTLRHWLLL
Experimental: as §1
DAT Radioligand Binding in Rat Striatum
as §2, with “of 15” for “of 20”, “100 μM” for “100 μM.”, “[…] Indatraline” for “μL Fluoxetine HCl”, “tissue. […]” for “tissue. All compound dilutions were tested in triplicate and the reaction incubated for 60 min at room temperature. The reaction was terminated by filtration through Perkin Elmer Uni-Filter-96 GF/B, presoaked for 60 min in 0.3% polyethylenimine, using a Brandel 96-Well Plates Harvester Manifold (Brandel Instruments, Gaithersburg, Md.).”

σ1R = target: T3, σ1R (Cavia porcellus, UniProt Q60492); assay: σ1R radioligand binding in guinea pig cortex ([3H]-(+)-Pentazocine competition); details: for σ1/DAT: ratio of σ1 to DAT affinity values; for σ1/SERT: ratio of σ1 to SERT affinity values
T3 construct: tissue BioReclamation IVT (Hicksville, N.Y.); host or cells: male Hartley guinea pig brain cortex membranes
T3 sequence (Q60492 whole entry): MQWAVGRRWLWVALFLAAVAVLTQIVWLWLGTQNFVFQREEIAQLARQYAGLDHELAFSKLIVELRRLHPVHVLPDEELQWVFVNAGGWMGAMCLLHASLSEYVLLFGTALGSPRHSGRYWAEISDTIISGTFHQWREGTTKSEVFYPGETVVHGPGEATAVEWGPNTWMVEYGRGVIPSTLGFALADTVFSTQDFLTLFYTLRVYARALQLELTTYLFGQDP
Experimental: as §1
σ1R Radioligand Binding in Guinea Pig Cortex
Male Hartley guinea pig cortices were dissected from freshly harvested brains (shipped cold in PBS buffer from BioReclamation IVT (Hicksville, N.Y.)) and frozen at −80° C. for future use. […] The supernatant was collected in a clean tube and the pellet re-suspended in 10 ml of cold buffer and centrifuged again (˜1,200 rpm) for 10 min at 4° C. […] The final pellet was suspended in ice-cold binding buffer at 50 mg/ml concentration. […] All test compounds were freshly dissolved in 30% DMSO and 70% H2O to a stock concentration of 1 mM or 100 μM. When necessary, to assist the solubilization of compounds, 10 μl of glacial acetic acid was added along with the DMSO (in place of 10 μl final H2O volume). Each test compound was then diluted into 10 half-log serial dilutions using 30% DMSO as the vehicle. […] Nonspecific binding was determined using either 10 μM PRE084 or 10 μM (+)-Pentazocine and total binding was determined with 30% DMSO vehicle (3% DMSO final concentration). […] The filters were washed 3 times with 3 ml (3×1 ml/well) of ice cold binding buffer.

[1] = Phase I metabolic stability in rat liver microsomes; format: in vitro ADME; details: for Phase I in Liver Microsomes, Negative Control: rat liver microsomes lacking NADPH; for Phase I in Liver Microsomes, Rat: with NADPH, 10 μM compound, 0.5 mg/mL microsomes; for stability to Phase I metabolism (in words): rat liver microsomes fortified with NADPH
Experimental: Methods: Phase I metabolic stability assays were conducted in rat liver microsomes. For phase I metabolism, the reactions were carried out with 100 mM potassium phosphate buffer, pH 7.4, in the presence of NADPH regenerating system (1.3 mM NADPH, 3.3 mM glucose 6-phosphate, 3.3 mM MgCl2, 0.4 U/mL glucose-6-phosphate dehydrogenase, […] sodium citrate). Reactions in triplicate were initiated by addition of the liver microsomes to the incubation mixture (compound final concentration was 10 μM; 0.5 mg/mL microsomes). Compound disappearance was monitored via LC/MS/MS. […] The total run time for each analyte was 5.0 min.

[2] = rat striatum membranes, [3H]-WIN35,428, mean ± SEM, read-out: DAT (rat striatum) Ki ± SEM

SMILES | Ki (SERT) | Ki (DAT; [2]) | SERT/DAT (DAT) | σ1/DAT (σ1R) | σ1/SERT (σ1R) | Phase I in Liver Microsomes, Negative Control ([1]; 0 min) | Phase I in Liver Microsomes, Rat ([1]; 0 min) | Phase I in Liver Microsomes, Rat ([1]; 30 min) | Phase I in Liver Microsomes, Negative Control ([1]; 60 min) | Phase I in Liver Microsomes, Rat ([1]; 60 min) | Ki (DAT) | stability to Phase I metabolism (in words) [1] | Phase I in Liver Microsomes, Negative Control ([1]; 30 min) | Kd (σ1R)
Cl.Cl.OC(CNC1CCN(CCSC(c2ccc(F)cc2)c2ccc(F)cc2)CC1)Cc1ccccc1 (stereo not shown) [JBG01-061, 1-((1-(2-((Bis(4-fluorophenyl)methyl)thio)ethyl)piperidin-4-yl)amino)-3-phenylpropan-2-ol] | 66.3 ± 2.81 nM | 47.7 ± 2.62 nM | 1.39 | 1.84 | 1.33 | 100% | 100% | 83% | 109% | 69% | – | – | – | –
Cl.Cl.Fc1ccc(CN2CCC(NCCSC(c3ccc(F)cc3)c3ccc(F)cc3)CC2)cc1 [JBG01-077, N-(2-((Bis(4-fluorophenyl)methyl)thio)ethyl)-1-(4-fluorobenzyl)piperidin-4-amine] | 277 ± 5.94 nM | 25.5 ± 6.95 nM | 10.86 | 0.52 | 0.048 | 100% | 100% | 88% | 111% | 70% | – | – | – | –
O=C(c1ccc(F)cc1)N1CCC(NCCSC(c2ccc(F)cc2)c2ccc(F)cc2)CC1 [JBG02-028, (4-((2-((Bis(4-fluorophenyl)methyl)thio)ethyl)amino)piperidin-1-yl)(4-fluorophenyl)methanone] | 485 ± 32 nM | – | 66.99 | 4.43 | 0.066 | 100% | 100% | 40% | 101% | 24% | 7.24 ± 0.78 nM | susceptibility | – | –
Cl.Cl.[O-][S+](CCNC1CCN(Cc2ccc(F)cc2)CC1)C(c1ccc(F)cc1)c1ccc(F)cc1 (stereo not shown) [JBG02-054, N-(2-((Bis(4-fluorophenyl)methyl)sulfinyl)ethyl)-1-(4-fluorobenzyl)piperidin-4-amine] | 370 ± 23.7 nM | 50.6 ± 11.2 nM | 7.31 | 0.52 | 0.072 | 100% | 100% | 100% | 102% | 95% | – | – | 102% | –
Cl.O=C(c1ccc(F)cc1)N1CCC(NCC[S+]([O-])C(c2ccc(F)cc2)c2ccc(F)cc2)CC1 (stereo not shown) [JBG02-056, (4-((2-((Bis(4-fluorophenyl)methyl)sulfinyl)ethyl)amino)piperidin-1-yl)(4-fluorophenyl)methanone] | 4620 ± 379 nM | 77.2 ± 4.54 nM | 59.84 | 17.10 | 0.29 | 100% | 100% | 100% | 91% | 79% | – | – | 97% | 1320 ± 36.5 nM
[O-][S+](CCNC1CCN(CC(O)Cc2ccccc2)CC1)C(c1ccc(F)cc1)c1ccc(F)cc1 (stereo not shown) [JBG02-057, 1-(4-((2-((Bis(4-fluorophenyl)methyl)sulfinyl)ethyl)amino)piperidin-1-yl)-3-phenylpropan-2-ol] | 595 ± 54.1 nM | 91.8 ± 21.3 nM | 6.48 | 3.77 | 0.58 | 100% | 100% | 50% | 100% | 22% | – | susceptibility | 102% | 346 ± 27.1 nM
CC(C)(C)C(=O)N1CCC(NCC[S+]([O-])C(c2ccc(F)cc2)c2ccc(F)cc2)CC1 (stereo not shown) [JBG02-072, 1-(4-((2-((Bis(4-fluorophenyl)methyl)sulfinyl)ethyl)amino)piperidin-1-yl)-2,2-dimethylpropan-1-one] | 32000 ± 6760 nM | 10200 ± 3610 nM | 3.14 | 1.10 | – | – | – | – | – | – | – | – | – | –
CC(C)(C)CN1CCC(NCC[S+]([O-])C(c2ccc(F)cc2)c2ccc(F)cc2)CC1 (stereo not shown) [JBG02-074, N-(2-((Bis(4-fluorophenyl)methyl)sulfinyl)ethyl)-1-neopentylpiperidin-4-amine] | 6990 ± 229 nM | 431 ± 28.2 nM | 16.22 | 1.26 | – | – | – | – | – | – | – | – | – | –
Fc1ccc(C(SCCNC2CCN(CC3CC3)CC2)c2ccc(F)cc2)cc1 [JBG02-080, N-(2-((bis(4-fluorophenyl)methyl)thio)ethyl)-1-(cyclopropylmethyl)piperidin-4-amine] | 1600 ± 164 nM | 407 ± 65 nM | 3.93 | 0.66 | – | – | – | – | – | – | – | – | – | –
O=C(C1CC1)N1CCC(NCCSC(c2ccc(F)cc2)c2ccc(F)cc2)CC1 [JBG02-083, (4-((2-((bis(4-fluorophenyl)methyl)thio)ethyl)amino)piperidin-1-yl)(cyclopropyl)methanone] | 1010 ± 94 nM | 178 ± 35 nM | 5.67 | 0.26 | – | – | – | – | – | – | – | – | – | –
CC(O)CN1[C@H](C)CN(CCSC(c2ccc(F)cc2)c2ccc(F)cc2)C[C@@H]1C (stereo partly drawn) [RDS03-094, 1-((2S,6R)-4-(2-((Bis(4-fluorophenyl)methyl)thio)ethyl)-2,6-dimethylpiperazin-1-yl)propan-2-ol] | 14800 ± 2260 nM | – | 629.79 | 0.24 | 0.00038 | 100% | 100% | 99% | 109% | 68% | 23.5 ± 2.12 nM | moderate stability | 106% | –
CC(O)CN1CCC2(CCN(CC[S+]([O-])C(c3ccc(F)cc3)c3ccc(F)cc3)CC2)C1 (stereo not shown) [RDS04-014] | 617 ± 54.8 nM | 449 ± 120 nM | 1.37 | 0.14 | 0.11 | – | – | – | – | – | – | – | – | –
